Tests used:
IRAK4 [1] = target: T1, IRAK4 (Homo sapiens, UniProt Q9NWZ3); assay: 2-hour 10 μM ATP Biochemical Assay (MesoScale Detection format; IRAK4 phosphorylation of biotin labeled IRAK1 activation loop peptide); settings: 0.1 nM IRAK4
T1 sequence (Q9NWZ3 1-460): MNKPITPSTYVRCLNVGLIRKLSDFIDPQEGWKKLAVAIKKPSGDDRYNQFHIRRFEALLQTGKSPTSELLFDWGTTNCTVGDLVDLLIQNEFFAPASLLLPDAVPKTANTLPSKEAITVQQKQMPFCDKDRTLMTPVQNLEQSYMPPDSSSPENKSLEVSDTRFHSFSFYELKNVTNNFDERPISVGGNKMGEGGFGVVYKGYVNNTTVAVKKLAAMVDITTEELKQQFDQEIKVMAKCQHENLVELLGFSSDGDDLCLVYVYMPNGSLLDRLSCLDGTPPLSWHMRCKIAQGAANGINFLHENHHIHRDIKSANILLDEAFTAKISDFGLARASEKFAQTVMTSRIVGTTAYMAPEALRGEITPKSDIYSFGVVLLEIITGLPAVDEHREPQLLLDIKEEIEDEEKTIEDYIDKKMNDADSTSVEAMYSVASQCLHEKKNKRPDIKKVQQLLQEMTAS
Description: Compounds of the invention were assessed for their ability to inhibit IRAK4 activity. The inhibitory properties of the compounds of the invention described herein can be evidenced by testing in any one of the following assays.
The 2-hour 10 μM ATP Biochemical Assay employs a MesoScale Detection (MSD) format. The kinase reaction is based on the IRAK4 phosphorylation of a biotin labeled peptide (IRAK1 activation loop sequence 360-389).
The kinase reaction in 30 μl is carried out in wells of a 384 well polypropylene assay plate, with 0.1 nM IRAK4, 1.6 μM of biotinylated peptide substrate and 10 μM ATP in 50 mM Hepes, pH 7.5, 60 mM NaCl, 5 mM MgCl2, 0.25 mM MnCl2, 2 mM DTT, 0.01% BSA, and 1% DMSO (from compound DMSO stocks), for 2 hour at room temperature. The activity is quenched with 11 μl of 70 mM EDTA, pH 8.
To detect the phosphorylated biotinylated peptide substrate, 30 μl of the quenched reaction mixture is added to equivalent wells of a 384 well streptavidin coated MesoScale plate (Meso Scale Discovery #L21SA-1). After a 1 hour incubation of the plate for 1 hour at room temperature with gentle mixing, the plate wells are washed 3 times with 50 mM Tris, pH 7.5, 150 mM NaCl, 0.02% Tween-20.
A 25 μl volume of 1:500 anti-P-Threonine Rabbit polyclonal Antibody plus 1:500 Goat-anti-Rabbit Sulfo Tag Antibody (Meso Scale Discovery R32AB-1) in 50 mM Tris, pH 7.5, 150 mM NaCl, 0.02% Tween-20 plus 2% BSA is then added to each well. After a 1-hour incubation of the plate for 1 hour at room temperature with gentle mixing, the plate wells are washed, 3 times with 50 mM Tris, pH 7.5, 150 mM NaCl, 0.02% Tween-20. A 40 μl volume of 2× MSD Read Buffer (Meso Scale Discovery R92TC-1) is added to each well, and the plate is read immediately in an MSD Plate Reader (Meso Scale Discovery).

IRAK4 [2] = target: T1, IRAK4; assay: biochemical
[3] = IRAK4 Biochemical Assay (1 mM ATP, 2 h) IC50 (μM), 1 mM ATP, 2 h, 100 pM IRAK4

Row | Compound | IC50 (IRAK4 [1]) | IC50 (IRAK4 [2]) | IC50 (IRAK4 [2]; [3])
1 | COc1cc2nc(C3CCOCC3)cn2cc1C(=O)Nc1cc(F)cc(C(F)F)c1 [Example 169] | 12 nM | 0.0296 µM | 
2 | COc1cc2nc(C3CCOCC3)cn2cc1C(=O)Nc1cccc(C(F)(F)F)c1 [Example 158] | 8 nM | 0.0257 µM | 
3 | COc1cc2nc(C3CC4CCC(C3)O4)cn2cc1C(=O)Nc1cccc(C(F)(F)F)n1 (stereo not drawn) [Example 44] | 3 nM |  | 0.0088 µM
4 | COc1cc2nc(C3CCOCC3)cn2cc1C(=O)Nc1cccc(Cl)c1C [Example 174] | 7 nM | 0.0477 µM | 
5 | COc1cc2nc(C3CCOCC3)cn2cc1C(=O)Nc1cccc2c1CCCC2 [Example 118] | 4 nM | 0.0174 µM | 
6 | COc1cc2nc(C3CCOCC3)cn2cc1C(=O)Nc1cccc(CF)c1 [Example 141] | 8 nM | 0.0245 µM | 
7 | CCOc1cc2nc(C[C@@H]3CCOC3)cn2cc1C(=O)Nc1cccc(C(F)F)n1 [Example 65, N-[6-(difluoromethyl)-2-pyridyl]-7-ethoxy-2-[[(3R)-tetrahydrofuran-3-yl]methyl]imidazo[1,2-a]pyridine-6-carboxamide] | 1 nM | 0.0015 µM | 
8 | COc1cccc(NC(=O)c2cn3cc(C4CC(OC)C4)nc3cc2OC)n1 (stereo not drawn) [Example 8] | 9 nM |  | 0.0263 µM
9 | COc1cc2nc(C3CCOCC3)cn2cc1C(=O)Nc1cccc(F)c1Cl [Example 173] | 4 nM | 0.016 µM | 
10 | COc1cc2nc(C3CCOCC3)cn2cc1C(=O)Nc1cccc(C(F)F)c1 [Example 125] | 4 nM | 0.0129 µM | 
11 | COc1cc2nc(C3CCOCC3)cn2cc1C(=O)Nc1cccc(C(C)(F)F)c1 [Example 145] | 13 nM | 0.0419 µM | 
12 | COc1cc2nc(C3CCOCC3)cn2cc1C(=O)Nc1cccc2c1CCC2 [Example 121] | 3 nM | 0.0092 µM | 
13 | COc1cc2nc(C3C4COCC43)cn2cc1C(=O)Nc1cccc(C(F)(F)F)n1 (stereo not drawn) [Example 32] | 8 nM | 0.013 µM | 
14 | COc1cc2nc(C3CC(OC)C3)cn2cc1C(=O)Nc1cccc(C(F)(F)F)n1 (stereo not drawn) [Example 36] | 8 nM |  | 0.0262 µM
15 | COc1cccc(NC(=O)c2cn3cc(C4CCOCC4)nc3cc2OC)n1 [Example 21] | 3 nM | 0.0085 µM | 
16 | COc1cccc(NC(=O)c2cn3cc(CC4CCOC4)nc3cc2OC)n1 (stereo not drawn) [Example 24] | 7 nM | 0.021 µM | 
17 | COc1cc2nc(C3CCOCC3)cn2cc1C(=O)Nc1cccc2c1CCO2 [Example 107] | 13 nM | 0.04 µM | 
18 | COc1cc2nc(C3CCOCC3)cn2cc1C(=O)Nc1cccc2c1OCC2 [Example 179] | 4 nM | 0.0089 µM | 
19 | COc1cc2nc(C3CCOCC3)cn2cc1C(=O)Nc1cccc(Cl)c1 [Example 144] | 7 nM | 0.0251 µM | 
20 | COc1cccc(NC(=O)c2cn3cc(C4C5COCC54)nc3cc2OC)n1 (stereo not drawn) [Example 22] | 5 nM | 0.018 µM | 

Row | Compound | IC50 (IRAK4 [1]) | IC50 (IRAK4 [2]) | IC50 (IRAK4 [2]; [3])
21 | COc1cc2nc(C3CCOCC3)cn2cc1C(=O)Nc1cccc(C)c1 [Example 143] | 10 nM | 0.0354 µM | 
22 | CCOc1cc2nc(C[C@H]3CCOC3)cn2cc1C(=O)Nc1cccc(C(F)F)n1 (single isomer, unassigned) [Example 64] | 1 nM | 0.0017 µM | 
23 | COc1cc2nc(C34CC(C#N)(C3)C4)cn2cc1C(=O)Nc1cccc(C(F)(F)F)n1 [Example 37] | 9 nM |  | 0.0253 µM
24 | CCOc1cc2nc(C(C)(C)C#N)cn2cc1C(=O)Nc1cccc(C(F)F)n1 [Example 74] | 5 nM | 0.0134 µM | 
25 | COc1cc2nc(C3CC4(CCOC4)C3)cn2cc1C(=O)Nc1cccc(C(F)(F)F)n1 (stereo not drawn) [Example 38] | 2 nM |  | 0.0048 µM
26 | COc1cc2nc(C3CCOCC3)cn2cc1C(=O)Nc1cccc2c1OCCC2 [Example 162] | 1 nM | 0.0016 µM | 
27 | COc1cc2nc(C3CCOCC3)cn2cc1C(=O)Nc1ccccc1F [Example 147] | 10 nM | 0.0417 µM | 
28 | COc1cc2nc(C3CCC(OC)C3)cn2cc1C(=O)Nc1cccc(C(F)(F)F)n1 (stereo not drawn) [Example 41] | 5 nM |  | 0.0157 µM
29 | COc1cc2nc(C3CCOCC3)cn2cc1C(=O)Nc1ccccc1OC(C)C [Example 168] | 11 nM | 0.0378 µM | 
30 | COc1cc2nc(C3CCOC(C)(C)C3)cn2cc1C(=O)Nc1cccc(C(F)(F)F)n1 (stereo not drawn) [Example 43] | 2 nM |  | 0.0032 µM
31 | COc1cc2nc(C3CCOCC3)cn2cc1C(=O)Nc1cccc(Cl)c1OC [Example 170] | 2 nM | 0.0053 µM | 
32 | COc1cccc(NC(=O)c2cn3cc(C4CC45CCCCO5)nc3cc2OC)n1 (stereo not drawn) [Example 9] | 9 nM |  | 0.0242 µM
33 | COc1cc2nc(C3CCOCC3)cn2cc1C(=O)Nc1cscc1C [Example 135] | 14 nM | 0.0645 µM | 
34 | COc1cc2nc(C3CCOCC3)cn2cc1C(=O)Nc1ccn(C(F)F)n1 [Example 48] | 13 nM |  | 0.04 µM
35 | COc1cc2nc(C3CC34CCOCC4)cn2cc1C(=O)Nc1cccc(C(F)(F)F)n1 (stereo not drawn) [Example 40] | 9 nM |  | 0.0305 µM
36 | COc1cc2nc(C3CCOCC3)cn2cc1C(=O)Nc1cccc(C(F)(F)F)n1 [Example 203] | 4 nM | 0.0096 µM | 
37 | COc1cc2nc(C3CCOCC3)cn2cc1C(=O)Nc1cccc(C(F)(F)F)c1C [Example 142] | 14 nM | 0.0383 µM | 
38 | COc1cccc(NC(=O)c2cn3cc(C4CC5(CCOC5)C4)nc3cc2OC)n1 (stereo not drawn) [Example 11] | 2 nM |  | 0.0034 µM
39 | COc1cc2nc(CC3CCOC3)cn2cc1C(=O)Nc1cccc(C(F)(F)F)n1 (stereo not drawn) [Example 33] | 5 nM | 0.014 µM | 
